Data published in patent US20050186287A1, “Copper agonist that binds on the copper binding site of APP and/or exerts an inhibiting effect on the release of amyloid Abeta peptide” (priority 1999, published 2005).

How the values were obtained:
[1] = tested on: CHO cells stably transfected with human APP695; test: Aβ production in CHO cells stably transfected with human APP695, cell variant not given; format: cell-based
Method: The employed Zn^2+ concentrations were 10 μM, 50 μM, 100 μM and 200 μM. Thereafter, it was studied from which concentration of Zn(II) the release of the Aβ peptide can be inhibited. The following experiments were carried out for this purpose:
(1) CHO cells which were stably transfected with human APP695 were incubated in MEM medium with the above-mentioned concentrations of Zn(II) (10 to 200 μM in PBS). CHO cells with copper ions (10 to 50 μM in PBS) or without any addition were incubated as controls. The production of Aβ (total), Aβ40 and Aβ42 was determined qualitatively and quantitatively with polyclonal and monoclonal antibodies. APP, Aβ and p3 were detected according to biosynthetic labeling with ^35S methionine as followed. The stably transfected CHO cells, which were incubated as mentioned above with the respective substances, were incubated for four hours with 220 μCi ^35S methionine as follows. […] The protein concentrations were determined beforehand using the protein detection kit from BioRad company and the amount of incorporated radioactivity was determined via scintillation counting. […] The supernatants were incubated with the above mentioned polyclonal APP and Aβ antibodies overnight at 4° C., the immunocomplexes formed were isolated with protein A sepharose and analyzed according to the method described in Ida et al., J. Biol. Chem. 271, pp. 22908-22914.

[2] = tested on: APP processing in CHO cells (CUR3, APP695); test: APP processing in copper-resistant CHO-CUR3 cells transfected with APP695 (35S-methionine labeling, immunoprecipitation); format: cell-based, human
Description: (§1) CHO cells were transfected with a c-myc-tagged APP695 vector (Peraus et al., J. Neurosci 17, page 7714-7724 (1997)) or with the expression vector (pcDNA3) by means of a highly efficient calcium phosphate transfection (Chen et al., Biotechniques 6, pages 632-638 (1988). The pSP65 (Invitrogen company) N-tag-APP 695 DNA was cloned into the vector pcDNA3 (Invitrogen/ITC Biotechnology, Heidelberg) using the SmaI or EcoRV cloning sites. The transfection efficiency was checked by means of immunoprecipitation of APP with polyclonal rabbit-anti-c-myc antibody (18/47; produced against the amino acid sequence EQKLISEEDL of the c-myc sequence; from Eurogentec, Seraing, Belgium) and immunoblots using the monoclonal mouse antibody 22C11 (Boehringer Mannheim) in the “ECL” detection system (Amersham, Braunschweig). The parental CHO-K1 cells and the copper-resistant cell variant CUR3 were cultured at 37° C. in “Eagles” medium (BME), to which 2 mM L-glutamine, 0.1 mM proline, 20 mM HEPES and 10% fetal calf serum (Boehringer Ingelheim) were added. The basic copper concentration was 0.8 μM. CUR3 cells were cultured in a medium with 200 μM of copper added.
(§2) Stably transfected CHO cells of a culture dish (60 mm) were treated for 4 hours with 2 ml essential minimum medium (MEM) which contained no methionine (Sigma company, Munich) and was supplemented with 220 μCi [^35S]methionine (Amersham company, Braunschweig) and 5% N2. The conditioned medium (CM) and the cells were collected and immunorepcipitated. The protein concentrations were determined beforehand by means of a “BioRad” protein assay (Bradford et al., Anal. Biochem. 72, pages 248-254 (1976)) or the radioactively labeled proteins were precipitated with 10% trichloroacetic acid (TCA) and the incorporated [^35S]methionine was measured (Beckman LS 6000IC). The cells were lyzed in extraction buffer which contained 50 mM Tris-CHl (pH value 7.5), 150 mM NaCl, 2 mM EDTA, 2% triton X-100, 2% NP40, 10 μg/ml aprotinin and 10 μg/ml leupeptin. For removing cell debris, the lysate and the medium were centrifuged for 10 minutes at 13,000×g and the medium was adjusted to 25 mM Tris-CHl (pH value 8.5), 1 mM PMSF, 10 μg/ml aprotinin, 10 μg/ml leupeptin, 0.5% triton X-100 and 0.5% NP40. The solubilized proteins were diluted in 100 mM Tris-HCl (pH value 7.5), 300 mM NaCl and 4 mM EDTA at a concentration of 1:2. The supernatants were incubated overnight at 4° C. with APP antibodies with end-over-end rotation in an overhead shaker. In some experiments, the resulting supernatants were then analyzed using Aβ antiserum. Immunocomplexes were obtained with protein A sepharose and analzyed as described in (Weidemann et al., Cell 57, pages 115-126 (1989)).
(§3) For detecting APP, polyclonal rabbit antibodies directed against recombinant Fd-APP770 (antiserum 22734/6 against the amino acid residues 18-687 of APP770 or antiserum 23850/6 against the APP amino acid residues 18-491 (FIG. 1) were diluted at a concentration of 1:500 for precipitation. The antisera were produced in a laboratory according to standard methods known to the person skilled in the art. Aβ, p3.5 and […] were recognized by the polyclonal antibodies 830 (diluation 1:50; Aβ, p3.5 and p3 were likewise precipitated) which had been produced against a synthetic peptide corresponding to the Aβ amino acid residues 1-40 (FIG. 1). Aβ and its derivatives were separated by 10-20% Tris-tricin-polyacrylamide gels and APP using 7% Tris-glycin-polyacrylamide gels or 7% Tris-tricin-polyacrylamide gels. For immunoblots cell extracts and extracellular medium were precipitated with 10% TCA, washed with acetone and dissolved in sample buffer. After the electrophoresis, the gels were further processed as described in (Simons et al., J. Neurosci 16, pages 899-908 (1996)) and quantified with the “Fuji-Bas-PhosphorImager” system. The data were expressed as average values +/− standard deviation and, unless indicated otherwise, they represent the result of at least two separate experiments. […]

[3] = tested on: APP processing in CHO cells (K1, APP695); test: APP processing in parental CHO-K1 cells transfected with APP695 (35S-methionine labeling, immunoprecipitation); format: cell-based, human
Description: as §1, §2, §3

CHO cells = test: Viability of CHO cells (LDH outflow); format: cell-based; settings: different copper concentrations, 4 h labeling, entire experiment
Method: During the labeling period copper chloride or zinc chloride (concentrations: 5 μM to 200 μM) were added to the culturing medium. D(−)-penicillamine (PEN; Sigma), bathocuproin-disulfonate (BC; Aldrich) and 1,10-phenanthroline ([…]; Sigma) were added to the medium up to a final concentration of 100 μM (PEN and BC) or 200 μM (PEN). The viability of the cells was measured by means of the lactate dehydrogenase (LDH) outflow into the culture (41). The LDH outflow was measured as enzyme activity (units/liter) after 2 and 4 hours in the medium of 70% confluent monolayers of CHO cells in “Eagle” medium modified according to Dulbecco (DMEM)
For investigating the regulation of the APP metabolism by copper ions, CHO cells stably transfected with APP695 were labeled for 4 hours with ^35S-labeled methionine in the presence of different copper concentrations and following immunoprecipitation with polyclonal antibodies which detect APP (22734/6) or detect Aβ and p3 ([…]), the secretions of the APP ectodomain, of Aβ and p3 were measured. […] APP695 derivatives released in conditioned medium were detected as bands of 105 and 97.5 kDa (FIG. 3b), they probably differing in that the upper band has a higher content of sialic acids.

[4] = tested on: Aβ peptide with the human sequence; test: Aβ production in CNS and blood of transgenic mice given Zn(II); format: in vivo; settings: orally, i.v., i.p., s.c. and i.c.
Method: (2) Primary neurons were isolated from transgenic mice which expressed the Aβ peptide with the human sequence, and their Aβ production was determined as described in (1).
(3) The above mentioned Zn(II) concentrations in PBS were applied to transgenic mice orally, i.v., i.p., s.c. and i.c. (see (2)) and the Aβ production was determined in the CNS and in the blood (which was withdrawn from the caudal vein) as outlined above in (1). The serum obtained from the caudal vein of the mice (150-200 μl) is filled using PBS buffer up to a volume of 500 μl and incubated with 5 μg monoclonal antibody WO-2 (Ida et al., supra) and 20 μl of a 1:1 suspension of protein G sepharose overnight at 4° C. on an overhead shaker. The resulting supernatant is then incubated with polyclonal antibodies (22734/6) against APP and the immunocomplexes are analyzed as described above in (1). The Aβ immunocomplexes are separated by means of 12% bis-tricin Novex gels in accordance with the instructions of the manufacturer and the relevant molecular weight range is analyzed after the transfer of the proteins to a nitrocellulose filter (380 mA at 4° C. for 40 minutes) with the monoclonal antibody WO-2 using the ECL technique according to Ida et al. The result here was also that a decrease of the Aβ production could be obtained from a concentration of 50 μM Zn(II).

For `[Ca+2]` [Ca(II)], the Aβ production ([1]; above 200 μM, detection limit reached) was “no further decrease”.

`[Cl][Cu][Cl]` [Cu(II), copper chloride] was tested, and the “APP695, [%] increase/decrease as compared to standard conditions” value ([2]; 50 μM Cu(II), 4 h, cell lysate (cAPP)) was 550%, the “p3, [%] increase/decrease as compared to standard conditions” value ([2]; 50 μM Cu(II), 4 h, medium) was 270% and the “Aβ, [%] increase/decrease as compared to standard conditions” value ([2]; 50 μM Cu(II), 4 h, medium, % of basal concentration) was 20%. The “SAPP695c, [%] increase/decrease as compared to standard conditions” value ([2]; 50 μM Cu(II), 4 h, soluble APP695 in conditioned medium, relative to basal medium (0.8 μM Cu)) was 265%, the Aβ levels ([2]; Cu(II) concentrations below the basal level (0.8 μM)) was “increased drastically” and the Aβ concentration ([2]; above 100 μM copper) was “hardly detectable”. The “secretion of p3” value ([2]; between 20 μM and 50 μM copper in the medium) was 270%, the “Cu(II) concentration at which the increase in sAPP695 reached a maximum” value ([2]; conditioned medium) was 50 µM and the “percentage of cAPP” value ([2]; copper concentration of 50 μM exceeded in the medium) was 550%. For the same compound, the p3.5 concentration ([2]; increasing copper (50 μM and above)) was “strongly lowered”, the “Aβ, [%] increase/decrease as compared to standard conditions” value ([3]; K1 cells, 10 μM Cu(II), 4 h) was 20% and the “p3, [%] increase/decrease as compared to standard conditions” value ([3]; K1 cells, 10 μM Cu(II), 4 h) was 154%. For the same compound, the “APP695, [%] increase/decrease as compared to standard conditions” value ([3]; K1 cells, 10 μM Cu(II), 4 h, cell lysate (cAPP)) was 295%, the “SAPP695c, [%] increase/decrease as compared to standard conditions” value ([3]; K1 cells, 10 μM Cu(II), 4 h, soluble APP695 in medium) was 475% and the sAPP751/770 level ([3]; K1 cells, 10 μM copper, endogenous KPI-containing isoforms) was 275%. The Aβ levels ([3]; K1 cells, Cu(II) concentrations below the basal level (0.8 μM)) was “increased drastically”, the “Cu(II) concentration at which the increase in sAPP695 reached a maximum” value ([3]; K1 cells, conditioned medium) was 10 µM and the Aβ production ([3]; K1 cells, increasing copper concentrations) was “below the detection limit”. For the same compound, the “viability of the cell lines” value (CHO cells) was “no reduced viability”.

In the case of `[Cl-].[Cl-].[Zn+2]` [Zn(II), zinc chloride], the “Aβ production reduced by” value ([2]; 50 μM Zn(II)) was 60%, the “Aβ production reduced by” value ([2]; 100 μM Zn(II)) was 90% and the “Aβ production reduced by” value ([2]; 200 μM Zn(II)) was 99%. The “secretion of APP” value ([2]; Zn(II) concentrations above 50 μM) was “lowered secretion”, the “secretion of APP” value ([3]; CHO-K1 cells, Zn(II) concentrations above 50 μM) was “lowered secretion” and the “Aβ production reduced by” value ([3]; K1 cells, 50 μM Zn(II)) was 20%. The “Aβ production reduced by” value ([3]; K1 cells, 200 μM Zn(II)) was 60%, the “Zn(II) concentration from which Aβ production could be reduced drastically” value ([1]; CHO cells, MEM medium, 10 to 200 μM Zn(II) tested) was no less than 50 µM and the “Zn(II) concentration from which a decrease of the Aβ production could be obtained” value [4] was no less than 50 µM.
